According to patent publication US4293483A, “Derivatives of A-30912A nucleus” (priority 1980, dated 1981):
Read-outs that look alike come from different tables or passages of the source. Numbered stars: 1 amine (or outer) side, 2 acyl side, 3 side chain; on linkers, the order of the positions; unused ones are H or OH. Bridge positions count the residues as written; N and C are the ends. Square brackets hold non-standard residues; d marks the D form. Peptide text beside a SMILES is read from it. * marks the point of attachment. Orn(4R-OH,5R-OH) = O=C([C@H](C[C@@H](O)[C@@H](O)N[*:3])N[*:1])[*:2]; hTyr(3S-OH,4S-OH) = N[C@H](C(=O)O)[C@H](O)[C@@H](O)c1ccc(O)cc1; Pro(3S-OH,4S-Me) = C[C@H]1CN[C@H](C(=O)O)[C@H]1O; 4Abz(2-Cl) = O=C(c1ccc(N[*:1])cc1Cl)[*:2]; X5 = O=C(c1cc(Cl)cc(N[*:1])c1Cl)[*:2]; X9 = COc1ccc(C(=O)[*:2])cc1N[*:1]; Hyp = O=C(O)[C@@H]1C[C@@H](O)CN1; X4 = Cc1cc(C(=O)[*:2])ccc1N[*:1]; X7 = Cc1ccc(C(=O)[*:2])cc1N[*:1]; X8 = O=C(c1ccc(N[*:1])cc1O)[*:2]; Lauroyl = CCCCCCCCCCCC(=O)*; Decanoyl = CCCCCCCCCC(=O)*; 3Abz = Nc1cccc(C(=O)O)c1; 4Abz = Nc1ccc(C(=O)O)cc1; Heptanoyl = CCCCCCC(=O)*; Octanoyl = CCCCCCCC(=O)*; Aun = NCCCCCCCCCCC(=O)O

Experiments:
Candida albicans A-26 [1] = experiment: Agar plate disc diffusion test, zone of inhibition; type: cell-based; conditions: 7 mm disc; for Size of Zone of Inhibition: 1 mg/ml suspension in methanol, 24-48 hours at 25-37° C., no regrowth mark
Procedure: (§1) ^(a) Compounds were tested as suspension in methanol.
(§2) were tested at a concentration of 1 mg/ml by a dipping 7mm disc into the
(§3) suspension and placing it on the agar surface. Incubation: 24-48 hours at

Neurospora Crassa 846 = experiment: Agar plate disc diffusion test, zone of inhibition; type: cell-based; conditions: Neurospora crassa, 7 mm disc
Procedure: as §1, §2, §3

Candida albicans A-26 [2] = experiment: Therapeutic activity against Candida albicans A-26 infection in mice; type: in vivo; conditions: A26, sc
Procedure: The results of in vivo tests to evaluate the effectiveness of the compound of Examples 61-81, 86 and 88 against an infection caused by Candida albicans A-26 in mice are given in Table 7, where activity is measured by the ED50 value (the dose in mg/kg. required to cure 50% of the test animals). Where an ED50 value was not obtained, activity is indicated by the lowest dose at which a significant anti-fungal effect is observed. In this test, groups of male albino mice (specific pathogen free), weighing 18 to 20 grams, are infected intravenously with Candida albicans A-26. The animals are X-irradiated 24 hours prior to infection at about 50 roentgens per minute for 8 minutes (400 total dose) to reduce immune responses to the infecting organism. At 0, 4, and 24 hours post infection each group of mice is given graded doses subcutaneously of the test compound as a suspension in 33% polyethylene glycol-water. The day of death for each animal is recorded.
*Dosage Schedule: 40, 20, 15, and 10 mg/kg. Dosages given 0, 4, and 24
hours post injection as suspension of test compound in 30% PEGH2 O.
Number of mice receiving test compounds at each dosage level: 6 mice per
group. Number of mice in control (untreated) group: 10 mice per group.
**As measured by increase in survival time of treated animals versus
control, calculated by method of Reed V. Mueuch, American J. Hygiene, 493

[3] = test system: Trychophyton mentagrophytes #6; experiment: Agar plate disc diffusion test, MIC per disc; type: cell-based; conditions: 0.01M sodium borate, pH 7.5, 24 hours at 30° C.
Procedure: (§4) In Table 5, activity is measured by the minimal inhibitory concentration (MIC) of the substance (μg/disc) required to inhibit growth of the test organism.
(§5) *Compounds were suspended in 0.01M sodium borate solution, pH 7.5.
(§6) compounds were tested at 20 μg/disc at top level and at twofold
(§7) dilutions until end points were reached.

[4] = mouse, in vivo, 416 mg/kg, 240 min
Procedure: In this test, mice are gavaged with a dose of 416 mg/kg of the test compound suspended in 33% PEG 400-water. At time intervals, blood samples are taken from the orbital sinus and are assayed for antibiotic activity as follows: A 7 mm. disc containing 20 μl of whole blood is placed on agar seeded with Aspergillus montevidensis A35137. After 40 hours incubation at 30° C. zones of inhibition from the blood samples are compared to a standard obtained from the test compound, and the amount of compound in the blood sample is calculated.

[5] = test system: Saccharomyces pastorianus X-52; experiment: Agar plate disc diffusion test, zone of inhibition; type: cell-based; conditions: Saccharomyces pastorianus, X52, 48 h, Saccharomyces pastorianus X-52; 1 mg/ml suspension in methanol, 7 mm disc; 24-48 hours at 25-37° C.; read-out: Size of Zone of Inhibition
Procedure: as §1, §2, §3

Candida albicans A-26 [6] = experiment: Agar plate disc diffusion test, MIC per disc; type: cell-based; conditions: 0.01M sodium borate, pH 7.5, 24 hours at 30° C.
Procedure: as §4, §5, §6, §7

[7] = test system: Trichophyton mentagrophytes; experiment: Agar plate disc diffusion test, zone of inhibition; type: cell-based; conditions: 7 mm disc
Procedure: as §1, §2, §3

[8] = CRASSA846, Neurospora Crassa 846, 1 mg/ml, * measurable zone of inhibition with regrowth of organism around disc, read-out: Size of Zone of Inhibition (*)
[9] = subcutaneous at 0, 4 and 24 hours post infection, dose to cure 50% of test animals, by increase in survival time, read-out: ED50
[10] = subcutaneous at 0, 4 and 24 hours post infection, lowest dose with significant anti-fungal effect, read-out: Lowest Active Dose
[11] = 1 mg/ml, * measurable zone of inhibition with regrowth of organism around disc, read-out: Size of Zone of Inhibition (*)
[12] = read-out: Lowest Active Dose, subcutaneous at 0, 4 and 24 hours post infection, lowest dose with significant anti-fungal effect

Row | SMILES | Size of Zone of Inhibition (Candida albicans A-26 [1]) | zone of inhibition at 1000 µg/mL (Neurospora Crassa 846; [8]) | ED50 (Candida albicans A-26 [2]; [9]) | minimal effective dose (Candida albicans A-26 [2]; [10]) | MIC [3] | Blood Levels [4] | zone of inhibition at 1000 µg/mL [5] | MIC (Candida albicans A-26 [6]) | zone of inhibition at 1000 µg/mL [7, 11] | Size of Zone of Inhibition (*) (Candida albicans A-26 [1]; 1 mg/ml, * measurable zone of inhibition with regrowth of organism around disc) | zone of inhibition at 1000 µg/mL (Neurospora Crassa 846; CRASSA846, 48 h, Neurospora Crassa 846, 1 mg/ml suspension in methanol, 24-48 hours at 25-37° C., no regrowth mark, read-out: Size of Zone of Inhibition) | zone of inhibition at 1000 µg/mL ([7]; 48 h, 1 mg/ml suspension in methanol, 24-48 hours at 25-37° C., no regrowth mark, read-out: Size of Zone of Inhibition) | ED50 (Candida albicans A-26 [2]) | minimal effective dose (Candida albicans A-26 [2]; [12])
1 | CCCCCCCCCCCC(=O)Nc1cc(C(=O)N[C@H]2C[C@@H](O)[C@@H](O)NC(=O)[C@@H]3[C@@H](O)[C@@H](C)CN3C(=O)[C@H]([C@@H](C)O)NC(=O)[C@H]([C@H](O)[C@@H](O)c3ccc(O)cc3)NC(=O)[C@@H]3C[C@@H](O)CN3C(=O)[C@H]([C@@H](C)O)NC2=O)ccc1C [Example 69] (Lauroyl-[X7][Orn(4R-OH,5R-OH)]T[Hyp][hTyr(3S-OH,4S-OH)]T[Pro(3S-OH,4S-Me)]; lactam 2-C) | 16 mm | 30 mm | > 40 mg/kg | > 40 mg/kg | < 0.039 μg/disc | 0 ng/mL | 17 mm | > 20 μg/disc |  |  |  |  |  | 
2 | CCCCCCCCCCCC(=O)Nc1cc(C(=O)N[C@H]2C[C@@H](O)[C@@H](O)NC(=O)[C@@H]3[C@@H](O)[C@@H](C)CN3C(=O)[C@H]([C@@H](C)O)NC(=O)[C@H]([C@H](O)[C@@H](O)c3ccc(O)cc3)NC(=O)[C@@H]3C[C@@H](O)CN3C(=O)[C@H]([C@@H](C)O)NC2=O)ccc1OC [Example 71] (Lauroyl-[X9][Orn(4R-OH,5R-OH)]T[Hyp][hTyr(3S-OH,4S-OH)]T[Pro(3S-OH,4S-Me)]; lactam 2-C) | 20 mm | 32 mm | > 40 mg/kg | > 40 mg/kg |  |  | 10 mm |  | 50 mm |  |  |  |  | 
3 | CCCCCCCCCCCC(=O)Nc1ccc(C(=O)N[C@H]2C[C@@H](O)[C@@H](O)NC(=O)[C@@H]3[C@@H](O)[C@@H](C)CN3C(=O)[C@H]([C@@H](C)O)NC(=O)[C@H]([C@H](O)[C@@H](O)c3ccc(O)cc3)NC(=O)[C@@H]3C[C@@H](O)CN3C(=O)[C@H]([C@@H](C)O)NC2=O)cc1C [Example 70] (Lauroyl-[X4][Orn(4R-OH,5R-OH)]T[Hyp][hTyr(3S-OH,4S-OH)]T[Pro(3S-OH,4S-Me)]; lactam 2-C) | 26 mm | 25 mm | > 40 mg/kg | > 40 mg/kg | < 0.039 μg/disc | 0 ng/mL | 19 mm | 20 μg/disc | 45 mm |  |  |  |  | 
4 | CCCCCCCCCCCC(=O)Nc1cccc(C(=O)N[C@H]2C[C@@H](O)[C@@H](O)NC(=O)[C@@H]3[C@@H](O)[C@@H](C)CN3C(=O)[C@H]([C@@H](C)O)NC(=O)[C@H]([C@H](O)[C@@H](O)c3ccc(O)cc3)NC(=O)[C@@H]3C[C@@H](O)CN3C(=O)[C@H]([C@@H](C)O)NC2=O)c1 [Example 65] ({Lauroyl-3Abz}-[Orn(4R-OH,5R-OH)]T[Hyp][hTyr(3S-OH,4S-OH)]T[Pro(3S-OH,4S-Me)]; lactam 1-C) | 20 mm |  | > 40 mg/kg | > 40 mg/kg | < 0.039 μg/disc | 0 ng/mL | 17 mm | 5.0 μg/disc |  |  |  |  |  | 
5 | CCCCCCC(=O)Nc1ccc(C(=O)N[C@H]2C[C@@H](O)[C@@H](O)NC(=O)[C@@H]3[C@@H](O)[C@@H](C)CN3C(=O)[C@H]([C@@H](C)O)NC(=O)[C@H]([C@H](O)[C@@H](O)c3ccc(O)cc3)NC(=O)[C@@H]3C[C@@H](O)CN3C(=O)[C@H]([C@@H](C)O)NC2=O)cc1 [Example 78] ({Heptanoyl-4Abz}-[Orn(4R-OH,5R-OH)]T[Hyp][hTyr(3S-OH,4S-OH)]T[Pro(3S-OH,4S-Me)]; lactam 1-C) |  |  |  |  | 1.25 μg/disc |  | 20 mm |  |  | 45 mm | 25 mm | 14 mm | > 40 mg/kg | > 40 mg/kg
6 | CCCCCCC(=O)NCCCCCCCCCCC(=O)N[C@H]1C[C@@H](O)[C@@H](O)NC(=O)[C@@H]2[C@@H](O)[C@@H](C)CN2C(=O)[C@H]([C@@H](C)O)NC(=O)[C@H]([C@H](O)[C@@H](O)c2ccc(O)cc2)NC(=O)[C@@H]2C[C@@H](O)CN2C(=O)[C@H]([C@@H](C)O)NC1=O [Example 76] ({Heptanoyl-Aun}-[Orn(4R-OH,5R-OH)]T[Hyp][hTyr(3S-OH,4S-OH)]T[Pro(3S-OH,4S-Me)]; lactam 1-C) | 10 mm | 20 mm | > 40 mg/kg | > 40 mg/kg | 0.625 μg/disc | 0 ng/mL |  |  | 35 mm |  |  |  |  | 
7 | CCCCCCCCCCCC(=O)Nc1ccc(C(=O)N[C@H]2C[C@@H](O)[C@@H](O)NC(=O)[C@@H]3[C@@H](O)[C@@H](C)CN3C(=O)[C@H]([C@@H](C)O)NC(=O)[C@H]([C@H](O)[C@@H](O)c3ccc(O)cc3)NC(=O)[C@@H]3C[C@@H](O)CN3C(=O)[C@H]([C@@H](C)O)NC2=O)c(O)c1 [Example 66] (Lauroyl-[X8][Orn(4R-OH,5R-OH)]T[Hyp][hTyr(3S-OH,4S-OH)]T[Pro(3S-OH,4S-Me)]; lactam 2-C) | 23 mm |  | > 40 mg/kg | 40 mg/kg | < 0.039 μg/disc | 0 ng/mL | 18 mm | 1.25 μg/disc |  |  |  |  |  | 
8 | CCCCCCCC(=O)Nc1ccc(C(=O)N[C@H]2C[C@@H](O)[C@@H](O)NC(=O)[C@@H]3[C@@H](O)[C@@H](C)CN3C(=O)[C@H]([C@@H](C)O)NC(=O)[C@H]([C@H](O)[C@@H](O)c3ccc(O)cc3)NC(=O)[C@@H]3C[C@@H](O)CN3C(=O)[C@H]([C@@H](C)O)NC2=O)c(Cl)c1 [Example 86] (Octanoyl-[4Abz(2-Cl)][Orn(4R-OH,5R-OH)]T[Hyp][hTyr(3S-OH,4S-OH)]T[Pro(3S-OH,4S-Me)]; lactam 2-C) |  |  | 29 mg/kg | 10 mg/kg |  |  |  |  |  |  |  |  |  | 
9 | CCCCCCCC(=O)Nc1cc(Cl)cc(C(=O)N[C@H]2C[C@@H](O)[C@@H](O)NC(=O)[C@@H]3[C@@H](O)[C@@H](C)CN3C(=O)[C@H]([C@@H](C)O)NC(=O)[C@H]([C@H](O)[C@@H](O)c3ccc(O)cc3)NC(=O)[C@@H]3C[C@@H](O)CN3C(=O)[C@H]([C@@H](C)O)NC2=O)c1Cl [Example 88] (Octanoyl-[X5][Orn(4R-OH,5R-OH)]T[Hyp][hTyr(3S-OH,4S-OH)]T[Pro(3S-OH,4S-Me)]; lactam 2-C) |  |  |  |  |  |  |  |  |  |  |  |  | > 40 mg/kg | 20 mg/kg
10 | CCCCCCCCCC(=O)Nc1ccc(C(=O)N[C@H]2C[C@@H](O)[C@@H](O)NC(=O)[C@@H]3[C@@H](O)[C@@H](C)CN3C(=O)[C@H]([C@@H](C)O)NC(=O)[C@H]([C@H](O)[C@@H](O)c3ccc(O)cc3)NC(=O)[C@@H]3C[C@@H](O)CN3C(=O)[C@H]([C@@H](C)O)NC2=O)cc1 [Example 79] ({Decanoyl-4Abz}-[Orn(4R-OH,5R-OH)]T[Hyp][hTyr(3S-OH,4S-OH)]T[Pro(3S-OH,4S-Me)]; lactam 1-C) | 24 mm | 30 mm |  |  |  |  | 17 mm | 0.625 μg/disc |  |  |  |  | 26 mg/kg | 5 mg/kg
